Legend:
[1] = molecular target: Sodium- and chloride-dependent GABA transporter 1 (Homo sapiens) (UniProt P30531); assay: Selectivity interaction (Eurofins CEREP Diversity Profile (receptors and ion channels)) EUB0000279b SLC6A1; conditions: at 10 µM
[2] = molecular target: BDNF/NT-3 growth factors receptor (Homo sapiens) (UniProt Q16620); assay: Selectivity interaction (Ambit KINOMEscan and KiNATiv profiling in Jurkat cells) EUB0000090b NTRK2; assay type: cell-based; conditions: at 1 µM
[3] = molecular target: T1, Phosphatidylinositol 5-phosphate 4-kinase type-2 beta (Homo sapiens) (UniProt P78356); assay: Selectivity interaction (KinomeScan (DiscoverX)) EUB0000655a PIP4K2B; conditions: at 10 µM
T1 sequence (whole entry): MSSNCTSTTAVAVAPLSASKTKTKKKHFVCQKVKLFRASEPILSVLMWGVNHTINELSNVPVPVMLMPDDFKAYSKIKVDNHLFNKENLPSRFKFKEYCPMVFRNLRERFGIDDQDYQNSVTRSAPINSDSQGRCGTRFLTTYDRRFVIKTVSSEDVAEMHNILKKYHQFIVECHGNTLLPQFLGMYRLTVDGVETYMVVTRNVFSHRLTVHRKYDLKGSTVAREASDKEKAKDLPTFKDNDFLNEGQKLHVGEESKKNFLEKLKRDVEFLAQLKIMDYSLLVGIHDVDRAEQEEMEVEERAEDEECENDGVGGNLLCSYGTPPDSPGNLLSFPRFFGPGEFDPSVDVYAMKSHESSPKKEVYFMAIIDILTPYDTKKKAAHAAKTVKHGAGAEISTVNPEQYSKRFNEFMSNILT

[4] = molecular target: T2, Ephrin type-A receptor 3 (Homo sapiens) (UniProt P29320); assay: Selectivity interaction (KinomeScan (DiscoverX)) EUB0001079a EPHA3; conditions: at 1 µM
T2 sequence (whole entry): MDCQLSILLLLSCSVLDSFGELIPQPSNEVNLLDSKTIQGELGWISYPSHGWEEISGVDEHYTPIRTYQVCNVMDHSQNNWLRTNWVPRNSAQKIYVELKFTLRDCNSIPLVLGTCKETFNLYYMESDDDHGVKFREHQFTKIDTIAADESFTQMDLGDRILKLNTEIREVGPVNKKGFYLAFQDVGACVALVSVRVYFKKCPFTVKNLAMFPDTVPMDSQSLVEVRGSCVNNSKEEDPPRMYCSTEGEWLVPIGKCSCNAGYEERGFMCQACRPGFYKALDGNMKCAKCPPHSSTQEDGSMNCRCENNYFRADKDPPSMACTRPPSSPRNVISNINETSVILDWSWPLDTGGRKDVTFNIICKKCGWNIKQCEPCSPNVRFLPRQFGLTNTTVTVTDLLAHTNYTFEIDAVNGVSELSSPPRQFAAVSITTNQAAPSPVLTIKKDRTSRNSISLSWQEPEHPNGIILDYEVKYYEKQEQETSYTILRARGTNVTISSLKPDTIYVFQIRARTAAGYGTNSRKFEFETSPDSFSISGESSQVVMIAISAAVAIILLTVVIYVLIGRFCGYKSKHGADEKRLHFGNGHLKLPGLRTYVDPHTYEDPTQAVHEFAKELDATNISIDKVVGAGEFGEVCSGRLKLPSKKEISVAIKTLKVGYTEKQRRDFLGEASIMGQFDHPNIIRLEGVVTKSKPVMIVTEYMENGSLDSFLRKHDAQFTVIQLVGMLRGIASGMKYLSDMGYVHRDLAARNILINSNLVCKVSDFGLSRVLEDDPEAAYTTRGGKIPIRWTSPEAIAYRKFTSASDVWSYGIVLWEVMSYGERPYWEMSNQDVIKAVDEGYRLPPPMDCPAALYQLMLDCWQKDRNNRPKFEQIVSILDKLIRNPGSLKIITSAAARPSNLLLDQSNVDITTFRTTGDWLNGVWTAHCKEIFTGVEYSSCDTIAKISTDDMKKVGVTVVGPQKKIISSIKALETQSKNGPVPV

[5] = molecular target: T3, Gamma-aminobutyric acid receptor subunit alpha-1 (Homo sapiens) (UniProt P14867); assay: Selectivity interaction (GPCR panel (PDSP screen)) EUB0001079a GABRA1; conditions: at 10 µM
T3 sequence (whole entry): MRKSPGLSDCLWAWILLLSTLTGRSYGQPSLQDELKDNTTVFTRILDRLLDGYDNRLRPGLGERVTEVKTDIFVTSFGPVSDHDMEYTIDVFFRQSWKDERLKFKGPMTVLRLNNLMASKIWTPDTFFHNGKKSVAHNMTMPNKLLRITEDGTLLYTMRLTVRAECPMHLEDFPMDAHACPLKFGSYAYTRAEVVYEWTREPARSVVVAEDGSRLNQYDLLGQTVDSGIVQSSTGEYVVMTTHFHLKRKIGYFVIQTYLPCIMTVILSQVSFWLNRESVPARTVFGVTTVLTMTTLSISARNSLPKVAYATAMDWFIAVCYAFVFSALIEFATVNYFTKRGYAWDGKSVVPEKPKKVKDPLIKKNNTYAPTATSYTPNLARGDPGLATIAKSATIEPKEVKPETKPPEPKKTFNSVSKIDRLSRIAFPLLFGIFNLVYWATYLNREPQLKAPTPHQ

[6] = molecular target: Serine/threonine-protein kinase pim-2 (Homo sapiens, UniProt Q9P1W9); assay: Selectivity interaction (KinomeScan (DiscoverX)) EUB0000607a PIM2; conditions: at 10 µM
Chain of Serine/threonine-protein kinase pim-2 (Q9P1W9 whole entry, looked up): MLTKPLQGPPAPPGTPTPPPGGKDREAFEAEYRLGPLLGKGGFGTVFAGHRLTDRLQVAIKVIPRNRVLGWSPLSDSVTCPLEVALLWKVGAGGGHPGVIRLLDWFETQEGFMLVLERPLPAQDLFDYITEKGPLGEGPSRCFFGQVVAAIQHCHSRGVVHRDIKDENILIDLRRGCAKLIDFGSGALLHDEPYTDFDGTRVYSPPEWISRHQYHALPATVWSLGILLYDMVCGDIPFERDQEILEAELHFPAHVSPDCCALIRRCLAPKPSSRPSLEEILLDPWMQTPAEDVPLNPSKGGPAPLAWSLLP

[7] = molecular target: Serine/threonine-protein kinase 38 (Homo sapiens) (UniProt Q15208); assay: Selectivity interaction (ActivX KiNativ screen (ex vivo kinase selectivity in human PBMCs)) EUB0001619a STK38; assay type: cell-based; conditions: PBMC, at 1 µM
Chain of Serine/threonine-protein kinase 38 (Homo sapiens) (Q15208 2-465 limits assumed): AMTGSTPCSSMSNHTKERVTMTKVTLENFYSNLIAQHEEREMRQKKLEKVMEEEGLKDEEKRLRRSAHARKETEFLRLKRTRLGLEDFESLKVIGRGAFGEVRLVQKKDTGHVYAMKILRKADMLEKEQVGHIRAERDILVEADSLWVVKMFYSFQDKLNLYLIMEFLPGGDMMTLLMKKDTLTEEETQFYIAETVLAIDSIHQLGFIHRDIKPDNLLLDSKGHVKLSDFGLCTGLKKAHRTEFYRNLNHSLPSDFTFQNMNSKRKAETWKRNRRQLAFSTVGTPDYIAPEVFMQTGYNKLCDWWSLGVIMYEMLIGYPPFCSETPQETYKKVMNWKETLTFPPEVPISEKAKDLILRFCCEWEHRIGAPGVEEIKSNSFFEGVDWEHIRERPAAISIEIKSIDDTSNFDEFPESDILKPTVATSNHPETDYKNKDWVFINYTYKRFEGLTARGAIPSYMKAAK

Chain of Sodium- and chloride-dependent GABA transporter 1 (Homo sapiens) (P30531 whole entry, looked up): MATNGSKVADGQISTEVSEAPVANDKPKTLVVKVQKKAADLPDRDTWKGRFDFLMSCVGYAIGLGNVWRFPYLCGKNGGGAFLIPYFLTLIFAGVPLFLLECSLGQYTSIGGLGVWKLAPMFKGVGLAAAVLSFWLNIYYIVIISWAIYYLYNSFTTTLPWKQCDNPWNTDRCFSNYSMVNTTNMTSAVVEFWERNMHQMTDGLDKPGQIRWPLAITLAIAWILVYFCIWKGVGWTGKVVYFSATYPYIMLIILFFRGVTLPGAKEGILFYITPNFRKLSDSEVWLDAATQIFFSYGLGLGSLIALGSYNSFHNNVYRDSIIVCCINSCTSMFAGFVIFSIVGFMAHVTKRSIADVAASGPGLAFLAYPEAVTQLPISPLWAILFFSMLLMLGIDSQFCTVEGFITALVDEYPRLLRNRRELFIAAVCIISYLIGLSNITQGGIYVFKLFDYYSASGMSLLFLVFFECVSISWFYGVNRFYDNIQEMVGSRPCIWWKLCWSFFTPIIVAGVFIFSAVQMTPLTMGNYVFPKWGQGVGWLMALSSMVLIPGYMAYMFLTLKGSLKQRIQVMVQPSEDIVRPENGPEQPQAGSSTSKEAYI
Chain of BDNF/NT-3 growth factors receptor (Homo sapiens) (Q16620 32-822 limits assumed): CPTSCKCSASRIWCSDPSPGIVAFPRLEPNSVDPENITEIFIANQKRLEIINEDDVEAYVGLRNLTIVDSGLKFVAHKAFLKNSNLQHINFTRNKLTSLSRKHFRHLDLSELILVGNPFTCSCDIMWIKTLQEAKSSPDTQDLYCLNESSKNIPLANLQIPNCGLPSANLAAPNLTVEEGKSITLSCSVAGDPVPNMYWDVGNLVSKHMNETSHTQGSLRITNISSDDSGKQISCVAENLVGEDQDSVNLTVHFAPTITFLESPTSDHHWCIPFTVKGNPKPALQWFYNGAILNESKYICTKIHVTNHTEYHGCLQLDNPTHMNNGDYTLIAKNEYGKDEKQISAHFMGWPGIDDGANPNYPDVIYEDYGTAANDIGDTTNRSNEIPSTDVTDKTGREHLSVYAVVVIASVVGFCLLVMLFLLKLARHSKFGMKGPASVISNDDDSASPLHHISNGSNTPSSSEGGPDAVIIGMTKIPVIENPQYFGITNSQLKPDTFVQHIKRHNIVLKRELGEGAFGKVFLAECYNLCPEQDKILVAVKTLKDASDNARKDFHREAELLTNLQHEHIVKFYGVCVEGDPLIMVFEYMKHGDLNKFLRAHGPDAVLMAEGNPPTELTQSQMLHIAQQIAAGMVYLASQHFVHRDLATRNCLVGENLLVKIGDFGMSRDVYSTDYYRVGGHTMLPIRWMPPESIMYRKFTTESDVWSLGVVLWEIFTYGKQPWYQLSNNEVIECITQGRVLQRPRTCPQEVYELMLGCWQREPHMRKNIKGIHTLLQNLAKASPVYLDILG

Question: With `CC(=O)c1cc(-c2ccccc2OCC2CC2)c2ncccn12` as the compound, how does the % of control [1] read?
Answer: The % of control was 107%.

Question: With `CN(C)C/C=C/C(=O)Nc1ccc(C(=O)N2CCCC(Nc3ncc(Cl)c(-c4c[nH]c5ccccc45)n3)C2)cc1` (configuration not stated) as the compound, how does the % of control [2] read?
Answer: Its % of control is 76%.

Question: How did the % of control [3] turn out when `CN(C)CCOc1ccc(-c2nc(-c3ccncc3)c(-c3ccc4c(c3)CC/C4=N\O)[nH]2)cc1` was run?
Answer: The % of control was 94%.

Question: What does the source list for `Nc1cnc(N2CCc3cc(S(=O)(=O)Nc4c(F)cc(Cl)cc4F)cc(N4CCCC4=O)c32)nc1` [TP-020n]?
Answer: % of control [4]: 78%; % of inhibition [5]: -1.96%

Question: `CNC(=O)Nc1ccc(-c2nc(N3CC4CCC(C3)O4)c3cnn(C4CCC5(CC4)OCCO5)c3n2)cc1` was tested. Which % of control [6] did it give?
Answer: The % of control was 74%.

Question: `N#Cc1cccc(-c2c[nH]c3ncnc(N4CCOCC4)c23)c1` was tested. Which % of inhibition [7] did it give?
Answer: The % of inhibition was 4%.
